Here are results for 24 compounds from patent US9738655B2, “Tetrahydroisoquinolines containing substituted azoles as factor XIa inhibitors” (BRISTOL-MYERS SQUIBB COMPANY, priority 2013, dated 2017).

Where a name gives a salt, the structure may show the parent alone. Read-outs that look alike come from different tables or passages of the source.

This assay has as its target purified human Factor XIa (Homo sapiens (Human), UniProt P03951). The assay can be described thus: Factor XIa enzyme inhibition assay (chromogenic substrate S-2366).
Setting [1] is: read-out: Factor XIa Ki, measured at 25° C.

Chain of purified human Factor XIa (P03951 388-625): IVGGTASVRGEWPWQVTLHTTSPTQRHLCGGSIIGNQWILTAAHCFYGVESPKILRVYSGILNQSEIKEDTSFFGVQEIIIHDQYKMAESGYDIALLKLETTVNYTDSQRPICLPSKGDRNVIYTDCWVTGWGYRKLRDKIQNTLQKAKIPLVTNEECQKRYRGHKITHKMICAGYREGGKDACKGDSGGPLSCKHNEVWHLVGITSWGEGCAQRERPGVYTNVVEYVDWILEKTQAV
Chain of purified human Factor XIa (P03951 19-387 partner): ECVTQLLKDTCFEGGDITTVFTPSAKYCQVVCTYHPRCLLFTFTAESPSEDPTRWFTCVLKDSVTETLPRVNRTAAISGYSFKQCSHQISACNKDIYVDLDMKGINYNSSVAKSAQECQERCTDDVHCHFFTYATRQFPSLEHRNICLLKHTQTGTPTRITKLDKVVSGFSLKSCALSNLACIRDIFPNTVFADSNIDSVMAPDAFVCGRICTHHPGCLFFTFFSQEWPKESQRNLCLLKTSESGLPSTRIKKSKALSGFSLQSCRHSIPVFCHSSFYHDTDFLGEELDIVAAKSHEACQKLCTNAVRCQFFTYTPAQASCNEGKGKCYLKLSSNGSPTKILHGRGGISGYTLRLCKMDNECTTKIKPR

With “4-(2-(1-(3-chloro-2- fluorophenyl)-5-hydroxy- 1H-pyrazole-4-carbonyl)-5- (4-methylpiperazin-1-yl)- 1,2,3,4- tetrahydroisoquinoline-1- carboxamido)benzoic acid, 2 TFA salt. [Example 214]”, under setting [1], the Ki was 713 nM. As to `O=C(O)c1ccc(NC(=O)C2c3cccc(N4CCOCC4=O)c3CCN2C(=O)[C@H]2CC(c3cccc(Cl)c3F)=NO2)cc1` (stereo in doubt) [Example 290, 4-((S)-2-((R)-3-(3-chloro-2-fluorophenyl)-4,5-dihydroisoxazole-5-carbonyl)-5-(3-oxomorpholino)-1,2,3,4-tetrahydroisoquinoline-1-carboxamido)benzoic acid], the inhibitory constant (Ki) under setting [1] came to 13.4 nM. For the compound `O=C(O)c1ccc(NC(=O)[C@H]2c3ccccc3CCN2C(=O)c2cn(-c3cccc(Cl)c3F)nn2)cc1` [Example 2, (R)-4-(2-(1-(3-Chloro-2-fluorophenyl)-1H-1,2,3-triazole-4-carbonyl)-1,2,3,4-tetrahydroisoquinoline-1-carboxamido)benzoic acid], the Ki under setting [1] was found to be 5580 nM. As for `Nc1cc(-c2cccc3c2CCN(C(=O)c2cn(-c4cccc(Cl)c4F)nn2)C3C(=O)Nc2ccc(C(=O)O)cc2)ccn1` (stereo not drawn) [Example 38, 4-(5-(2-aminopyridin-4-yl)-2-(1-(3-chloro-2-fluorophenyl)-1H-1,2,3-triazole-4-carbonyl)-1,2,3,4-tetrahydroisoquinoline-1-carboxamido)benzoic acid, bis-TFA salt], the Ki under setting [1] was less than 5 nM. On to `O=C(O)c1ccc(NC(=O)C2c3cccc(-c4ccc5c(c4)CCNC5)c3CCN2C(=O)c2cn(-c3cccc(Cl)c3F)nn2)cc1` (stereo not drawn) [Example 40, 4-(2-(1-(3-chloro-2-fluorophenyl)-1H-1,2,3-triazole-4-carbonyl)-1,1′,2,2′,3,3′,4,4′-octahydro-[5,6′-biisoquinoline]-1-carboxamido)benzoic acid, TFA salt], for which the Ki under setting [1] was less than 5 nM. For `Nc1c(C(=O)N2CCc3c(-c4cncnc4)cccc3C2C(=O)Nc2ccc(C(=O)O)cc2)cnn1-c1cccc(Cl)c1F` (stereo not drawn) [Example 46, 4-(2-(5-Amino-1-(3-chloro-2-fluorophenyl)-1H-pyrazole-4-carbonyl)-5-(pyrimidin-5-yl)-1,2,3,4-tetrahydroisoquinoline-1-carboxamido)benzoic acid, TFA salt], the Ki under setting [1] is less than 5 nM. Regarding `CNC(=O)c1ccc(-c2cccc3c2CCN(C(=O)c2cnn(-c4cccc(Cl)c4F)c2N)C3C(=O)Nc2ccc(C(=O)O)cc2)cn1` (stereo not drawn) [Example 47, 4-(2-(5-Amino-1-(3-chloro-2-fluorophenyl)-1H-pyrazole-4-carbonyl)-5-(6-(methylcarbamoyl)pyridin-3-yl)-1,2,3,4-tetrahydroisoquinoline-1-carboxamido)benzoic acid, TFA salt], the Ki under setting [1] is less than 5 nM. Still for that read-out and setting: to `CC1(O)CCN(c2cccc3c2CCN(C(=O)c2cnn(-c4cccc(Cl)c4F)c2)C3C(=O)Nc2ccc(C(=O)O)cc2)CC1` (stereo not drawn) [Example 68, 4-(2-(1-(3-chloro-2-fluorophenyl)-1H-pyrazole-4-carbonyl)-5-(4-hydroxy-4-methylpiperidin-1-yl)-1,2,3,4-tetrahydroisoquinoline-1-carboxamido)benzoic acid, TFA salt] belongs less than 5 nM; to `CN1CCC(=O)N(c2cccc3c2CCN(C(=O)c2cnn(-c4cccc(Cl)c4F)c2)C3C(=O)Nc2ccc(C(=O)O)cc2)CC1` (stereo not drawn) [Example 70, 4-(2-(1-(3-chloro-2-fluorophenyl)-1H-pyrazole-4-carbonyl)-5-(4-methyl-7-oxo-1,4-diazepan-1-yl)-1,2,3,4-tetrahydroisoquinoline-1-carboxamido)benzoic acid, TFA salt], 29.3 nM. In the case of `O=C(O)c1ccc(NC(=O)C2c3cccc(N4CCC(O)CC4)c3CCN2C(=O)c2cn(-c3cccc(Cl)c3F)nn2)cc1` (stereo not drawn) [Example 85, 4-(2-(1-(3-chloro-2-fluorophenyl)-1H-1,2,3-triazole-4-carbonyl)-5-(4-hydroxypiperidin-1-yl)-1,2,3,4-tetrahydroisoquinoline-1-carboxamido)benzoic acid, TFA salt], the Ki under setting [1] is less than 5 nM. Turning to `O=C(O)c1ccc(NC(=O)[C@@H]2c3cccc(N4CCC(O)CC4)c3CCN2C(=O)c2cn(-c3cccc(Cl)c3F)nn2)cc1` [Example 86, (S)-4-(2-(1-(3-chloro-2-fluorophenyl)-1H-1,2,3-triazole-4-carbonyl)-5-(4-hydroxypiperidin-1-yl)-1,2,3,4-tetrahydroisoquinoline-1-carboxamido)benzoic acid, TFA salt], the Ki under setting [1] was less than 5 nM. Consider `O=C(O)c1ccc(NC(=O)[C@H]2c3cccc(N4CCC(O)CC4)c3CCN2C(=O)c2cn(-c3cccc(Cl)c3F)nn2)cc1` [Example 87, (R)-4-(2-(1-(3-chloro-2-fluorophenyl)-1H-1,2,3-triazole-4-carbonyl)-5-(4-hydroxypiperidin-1-yl)-1,2,3,4-tetrahydroisoquinoline-1-carboxamido)benzoic acid, TFA salt], for which, under setting [1], the Ki came to 43 nM. With `O=C(O)c1ccc(NC(=O)C2c3cccc(NCCO)c3CCN2C(=O)c2cn(-c3cccc(Cl)c3F)nn2)cc1` (stereo not drawn) [Example 111, 4-(2-(1-(3-Chloro-2-fluorophenyl)-1H-1,2,3-triazole-4-carbonyl)-5-((2-hydroxyethyl)amino)-1,2,3,4-tetrahydroisoquinoline-1-carboxamido)benzoic acid, TFA salt], the Ki under setting [1] was 6.04 nM. Take `O=C(N[C@H]1CC[C@@H](C(=O)O)CC1)C1c2cccc(-c3cncnc3)c2CCN1C(=O)c1cn(-c2cccc(Cl)c2F)nn1` (stereo partly drawn) [Example 133, (1R,4R)-4-(2-(1-(3-chloro-2-fluorophenyl)-1H-1,2,3-triazole-4-carbonyl)-5-(pyrimidin-5-yl)-1,2,3,4-tetrahydroisoquinoline-1-carboxamido) cyclohexanecarboxylic acid]: the Ki under setting [1] was 12.6 nM. On the same count and under the same terms, to `COC(=O)C12CCC(NC(=O)C3c4cccc(-c5cncnc5)c4CCN3C(=O)c3cn(-c4cccc(Cl)c4F)nn3)(CC1)CC2` (stereo not drawn) [Example 142, Methyl 4-(2-{[1-(3-chloro-2-fluorophenyl)-1H-1,2,3-triazol-4-yl]carbonyl}-5-(pyrimidin-5-yl)-1,2,3,4-tetrahydroisoquinoline-1-amido)bicyclo[2.2.2]octane-1-carboxylate, TFA salt] belongs 56.2 nM. Regarding `COC1CCN(c2cccc3c2CCN(C(=O)c2sc(-c4cccnc4)nc2C)C3C(=O)Nc2ccc(C(=O)O)cc2)CC1` (stereo not drawn) [Example 146, 4-(5-(4-methoxypiperidin-1-yl)-2-(4-methyl-2-(pyridin-3-yl)thiazole-5-carbonyl)-1,2,3,4-tetrahydroisoquinoline-1-carboxamido)benzoic acid, 2 TFA salt], the Ki under setting [1] stood at 1200 nM. Still for that read-out and setting: to `COC1CCN(c2cccc3c2CCN(C(=O)c2cc(-c4ccccc4Cl)no2)C3C(=O)Nc2ccc(C(=O)O)cc2)CC1` (stereo not drawn) [Example 148, 4-(2-(3-(2-chlorophenyl)isoxazole-5-carbonyl)-5-(4-methoxypiperidin-1-yl)-1,2,3,4-tetrahydroisoquinoline-1-carboxamido)benzoic acid, TFA salt] belongs 69.5 nM.

On to `COC1CCN(c2cccc3c2CCN(C(=O)C2CCN(c4ccc(OC(C)C)cc4)C2=O)C3C(=O)Nc2ccc(C(=O)O)cc2)CC1` (stereo not drawn) [Example 149, 4-(2-(1-(4-isopropoxyphenyl)-2-oxopyrrolidine-3-carbonyl)-5-(4-methoxypiperidin-1-yl)-1,2,3,4-tetrahydroisoquinoline-1-carboxamido)benzoic acid, TFA salt], for which the Ki under setting [1] is 7160 nM. Turning to `COC1CCN(c2cccc3c2CCN(C(=O)c2cc(-c4cccc(F)c4)no2)C3C(=O)Nc2ccc(C(=O)O)cc2)CC1` (stereo not drawn) [Example 152, 4-(2-(3-(3-fluorophenyl)isoxazole-5-carbonyl)-5-(4-methoxypiperidin-1-yl)-1,2,3,4-tetrahydroisoquinoline-1-carboxamido)benzoic acid, TFA salt], the Ki under setting [1] was determined as 466 nM.

`COc1ncc(-c2cccc3c2CCN(C(=O)c2cn(-c4cccc(Cl)c4F)nn2)C3C(=O)Nc2ccc(C(=O)O)cc2)c(OC)n1` (stereo not drawn) [Example 158, 4-(2-(1-(3-chloro-2-fluorophenyl)-1H-1,2,3-triazole-4-carbonyl)-5-(2,4-dimethoxypyrimidin-5-yl)-1,2,3,4-tetrahydroisoquinoline-1-carboxamido)benzoic acid] returned a Ki of less than 5 nM. In the case of `NCc1ccc(-c2cccc3c2CCN(C(=O)c2cn(-c4cccc(Cl)c4F)nn2)C3C(=O)Nc2ccc(C(=O)O)cc2)cc1` (stereo not drawn) [Example 163, 4-(5-(4-(aminomethyl)phenyl)-2-(1-(3-chloro-2-fluorophenyl)-1H-1,2,3-triazole-4-carbonyl)-1,2,3,4-tetrahydroisoquinoline-1-carboxamido)benzoic acid, TFA salt], the Ki under setting [1] was less than 5 nM. Turning to `O=C(O)c1ccc(NC(=O)C2c3cccc(-c4cccc(-c5ccn[nH]5)c4)c3CCN2C(=O)c2cn(-c3cccc(Cl)c3F)nn2)cc1` (stereo not drawn) [Example 164, 4-(5-(3-(1H-pyrazol-5-yl)phenyl)-2-(1-(3-chloro-2-fluorophenyl)-1H-1,2,3-triazole-4-carbonyl)-1,2,3,4-tetrahydroisoquinoline-1-carboxamido)benzoic acid], the Ki under setting [1] stood at 9.17 nM. For `O=C(O)c1ccc(NC(=O)C2c3cccc(C4=CCOCC4)c3CCN2C(=O)c2cn(-c3cccc(Cl)c3F)nn2)cc1` (stereo not drawn) [Example 165, 4-(2-(1-(3-chloro-2-fluorophenyl)-1H-1,2,3-triazole-4-carbonyl)-5-(3,6-dihydro-2H-pyran-4-yl)-1,2,3,4-tetrahydroisoquinoline-1-carboxamido)benzoic acid], the Ki under setting [1] was less than 5 nM. For the compound `CNC(=O)c1ccc(-c2cccc3c2CCN(C(=O)c2cn(-c4cccc(Cl)c4F)nn2)C3C(=O)Nc2ccc(C(=O)O)cc2)cn1` (stereo not drawn) [Example 166, 4-(2-(1-(3-chloro-2-fluorophenyl)-1H-1,2,3-triazole-4-carbonyl)-5-(6-(methylcarbamoyl)pyridin-3-yl)-1,2,3,4-tetrahydroisoquinoline-1-carboxamido)benzoic acid, TFA salt], under setting [1], the Ki is less than 5 nM.

By Ki is commonly meant the equilibrium dissociation constant of an inhibitor or competing ligand from its target.
